A short description of data set [1]: Light/dark exploration test. Type of data set: in vivo, mouse. The note with it: 10 mg/kg ip, total hours (32) referred to all animals, 8 animals, 4 hours; for Dark section: controls 14; for Lit section: controls 18. The method, then:
The test is performed with a cage subdivided into two sections, a dark and a lit one.
Evidence was provided that the mice treated with adequate doses of anxiolytic drugs, e.g. Diazepam or Buspirone, spend a longer time in the lit section than controls.
The anxiolytic activity, if any, of the molecules can be evaluated on the basis of the time spent in the lit section.
The total duration of the test for each group of 8 animals was 4 hours.
The data are expressed as total hours (32) referred to all animals.

The conditions of data set [2]: rats, ip; antidepressants and anxiolytics known to the prior art; cited from earlier work.
A further data set in a line: Toxicity (LD50), Table 6. The note with it: rat, in vivo, rats, read-out: LD₅₀. An excerpt: The toxicity of gamma-hydroxybutyrate sodium salt to rats compared with antidepressants and anxiolytics known to the prior art is shown in Table 6.
Data set [3] is described as follows: Despair test (Porsolt behavioural test, duration of immobility). Type of data set: in vivo, Male Swiss mice (CD strain, Charles River). The note with it: mice; for <%: decrease of immobility vs dose 0; for Duration of immobility: one hour before testing. The method, then: This behavioural test developed by R.D. Porsolt et al. (Arch. int. Pharmacodyn. 229, 327-336, 1977) is commonly used to evaluate the activity of antidepressant agents.
Male Swiss mice (CD strain, Charles River) weighing 30 g were used and assigned at random to the various treatment groups.
The mice were plunged individually into a Plexiglas cylinder of 25 cm in height and 9 cm in diameter, filled with water at 24°C, for a 6 min latency up to 6 cm from the upper lip.
The duration of the test was 6 minutes. The time during which the animal kept floating passively was measured starting from the 2nd minute (duration of immobility).
One hour before testing, sodium gamma-hydroxybutyrate (NaGHB) as an acqueous suspension additioned of non-ionic surfactant Tween was administered by i.p. injection in a volume of 10 ml/kg, or per os.
Blind tests were performed. The statistical analysis of the data was performed, whenever possible, by Student's t-test, otherwise by Mann Whitney's non-parametric test.

On the set-up of data set [4]: species or system Male Sprague-Dawley rats. The note with it: rat, in vivo.

“And” between values parts separate entries of the source, which are not always exact repeats. Identical values can stand only once. Like-named read-outs stand apart in the source and are kept apart here.

In data set [1], `O=C1CC2(CCCC2)CC(=O)N1CCCCN1CCN(c2ncccn2)CC1` [Buspirone] registered a Dark section of 10 total hours and a Lit section of 22 total hours. Besides, the “LD₅₀” value in data set [2] is recorded as 136 mg/kg.
For `CN1C(=O)CN=C(c2ccccc2)c2cc(Cl)ccc21` [Diazepam], in data set [1], the Dark section is 7 total hours and the Lit section is listed as 25 total hours.
As for `O=C([O-])CCCO.[Na+]` [NaGHB, sodium gamma-hydroxybutyrate], the Dark section in data set [1] is reported as 9 total hours. The Lit section in data set [1] was found to be 23 total hours. Besides, the LD50 in the data set “Toxicity (LD50), Table 6” (po, os) worked out at 12400 mg/kg; in the data set “Toxicity (LD50), Table 6” (ip), 3280 mg/kg. For the same compound, the “<%” value in data set [3] (ip, 5 mg/kg) is on record as 15%; in data set [3] (ip, 10 mg/kg), 27%; in data set [3] (ip, 20 mg/kg), 36%; in data set [3] (ip, 40 mg/kg), 43%; in data set [3] (per os, 20 mg/kg), 17%; in data set [3] (per os, 50 mg/kg), 40%. The “<%” value in data set [3] (per os, 100 mg/kg) is 42%. The “Duration of immobility” value in data set [3] (ip, 5 mg/kg) was found to be 179 ± 24 s; in data set [3] (ip, 10 mg/kg), 153 ± 19 s; in data set [3] (ip, 20 mg/kg), 134 ± 26 s; in data set [3] (ip, 40 mg/kg), 120 ± 12 s; in data set [3] (per os, 20 mg/kg), 189 ± 23 s; in data set [3] (per os, 50 mg/kg) it was 137 ± 16 s. Also, in data set [3] (per os, 100 mg/kg), the “Duration of immobility” value is on record as 133 ± 31 s. Moreover, the mean reaction time entry in data set [4] is on record as “decreased mean reaction time”. Further, in data set [4], the “number of attempts to escape” value is on record as “increased number of attempts to escape”. The “difference between the group of controls and the CNaGHB group” value in data set [4] (10 mg/kg) is given as “no significant difference”. The “Mean reaction time, mean ± S.E.” value in data set [4] (ip, 10 mg/kg) was 5.76±0.34 and 5.4±1.0. The “No. of escape failures, mean ± S.E.” value in data set [4] (ip, 10 mg/kg) is 21.3±1.1 and 23.6±2.6.

(Values after patent EP0616804A1 (priority 1993, dated 1994).)
